SMILES strings stand for the structures.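 48-hour exposure; five concentrations; linearly interpolated endpoints. Abbreviation: GI50, concentration required for 50% inhibition of growth.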 Activity calls are given as the source filed them. No stated cut-off is given here; in the data, active = GI50 up to about 1.1 µM and inactive = higher.

Data on 7 compounds can be found in ChEMBL document CHEMBL1201862, “PubChem BioAssay data set” (2004).

Some test systems named below: 786-0; A549; DU-145; HL-60; HOP-92; K562; LOX IMVI; MCF7; MDA-MB-231; MDA-MB-435; MDA-N; NCI-H226; OVCAR-3; PC-3; RPMI-8226; SF-268; SW-620; T47D; UACC-62; UO-31.
Experiment in all cases: growth of human tumour cells (NCI), 48 h

Turning to `CCOC(NC(=O)CC)(C(F)(F)F)C(F)(F)F`, the GI50 in the assay with 786-0, in the assay on A549, in the assay with DU-145, with HL-60, in the assay with HOP-92 and in the assay on K562 was > 100 µM (inactive) each time. The GI50 in the assay on LOX IMVI, in the assay on MCF7, in the assay on MDA-MB-231, with MDA-MB-435, in the assay on MDA-N and in the assay with NCI-H226 was > 100 µM (inactive) in each case. Further, the GI50 in the assay on OVCAR-3, with PC-3, in the assay with RPMI-8226, in the assay with SF-268, in the assay on SW-620 and with T47D was > 100 µM (inactive) in each case. Further, the GI50 with UACC-62 and in the assay on UO-31 was > 100 µM (inactive) throughout.
`NC(=O)C1CCCN1C(=O)C(Cc1c[nH]cn1)NC(=O)C1CCCC1` (stereo not drawn): the GI50 in the assay with 786-0, in the assay with A549, in the assay with DU-145, in the assay on HL-60, in the assay on HOP-92 and with K562 was > 100 µM (inactive) each time. Besides, the GI50 in the assay with LOX IMVI, in the assay with MCF7, in the assay on MDA-MB-231, with MDA-MB-435, in the assay on MDA-N and in the assay with NCI-H226 was > 100 µM (inactive) throughout. Further, the GI50 in the assay on OVCAR-3, in the assay on PC-3, in the assay on RPMI-8226, in the assay on SW-620, in the assay on T47D and with UACC-62 was > 100 µM (inactive) throughout. For the same compound, in the assay on UO-31, the GI50 was > 100 µM (inactive).
Regarding `O=C(OCc1c(-c2ccccc2)nn(-c2ccccc2)c1COC(=O)Oc1ccccc1)Oc1ccccc1`, the GI50 in the assay with 786-0, in the assay on A549, with DU-145, in the assay on HL-60, in the assay with HOP-92 and in the assay with K562 was > 100 µM (inactive) each time. Also, the GI50 in the assay on LOX IMVI, in the assay with MCF7, in the assay on MDA-MB-231, in the assay with MDA-MB-435, in the assay on MDA-N and in the assay on NCI-H226 was > 100 µM (inactive) each time. Further, the GI50 in the assay with OVCAR-3, in the assay with PC-3, in the assay with RPMI-8226, in the assay on SF-268, in the assay on SW-620 and in the assay on T47D was > 100 µM (inactive) in each case. In addition, the GI50 in the assay on UACC-62 was > 100 µM (inactive).
For the compound `S=C1C(CCCOCc2ccccc2)C2CCCC23CC2(CCN13)OCCS2` (stereo not drawn), the GI50 in the assay with 786-0, with DU-145, with HL-60, with HOP-92, in the assay with K562 and in the assay with LOX IMVI was > 10 µM (inactive) each time. Besides, the GI50 in the assay with MCF7, with MDA-MB-231, with MDA-MB-435, in the assay on MDA-N, with NCI-H226 and in the assay with OVCAR-3 was > 10 µM (inactive) throughout. Besides, the GI50 in the assay with PC-3, in the assay on RPMI-8226, in the assay on SF-268, with SW-620, in the assay with T47D and with UO-31 was > 10 µM (inactive) in each case.
As for `CCOC(=O)/C(C(=O)NC(C)C)=C(/N)N1CCOCC1`, the GI50 with 786-0, in the assay with A549, in the assay with DU-145, in the assay on HL-60, in the assay on HOP-92 and in the assay on K562 was > 100 µM (inactive) each time. Besides, the GI50 in the assay with LOX IMVI, in the assay on MCF7, in the assay on MDA-MB-231, in the assay with MDA-MB-435, with MDA-N and with NCI-H226 was > 100 µM (inactive) each time. For the same compound, the GI50 in the assay with OVCAR-3, in the assay with PC-3, in the assay on RPMI-8226, in the assay on SF-268, in the assay on SW-620 and in the assay with T47D was > 100 µM (inactive) each time. For the same compound, in the assay on UACC-62, the GI50 is > 100 µM (inactive).
With `COC1/C=C/C(C)C(OC)CC(O)/C=C/C(C)C(C(C)C(OC)C(C)CCC(=O)C(C)C(C/C=C/N(C)C=O)OC)OC(=O)/C=C/C=C(\C)CC(OC)C(OC)C2=CC(=O)O[C@@H](C(C)C(OC)C1)[C@H]2O` (stereo partly drawn), the GI50 is 0.0442 µM (active) in the assay with 786-0; 0.0518 µM (active) in the assay with A549; 0.0959 µM (active) with DU-145; 0.0299 µM (active) in the assay on HL-60; 0.0327 µM (active) in the assay on HOP-92; 0.00791 µM (active) in the assay with LOX IMVI. Besides, the GI50 in the assay with MCF7 is 0.0251 µM (active); with MDA-MB-231, 0.0366 µM (active); in the assay on MDA-MB-435 it was 0.0532 µM (active); in the assay with MDA-N, 0.0507 µM (active); in the assay with NCI-H226, 0.0194 µM (active); in the assay on OVCAR-3, 0.00596 µM (active). Also, the GI50 with PC-3 is 0.0337 µM (active); in the assay with RPMI-8226, 0.346 µM (active); with SF-268, 0.0442 µM (active); in the assay with SW-620, 0.0361 µM (active); with T47D, 0.0571 µM (active); in the assay with UACC-62 it was 0.0571 µM (active). The GI50 in the assay with UO-31 is 0.0419 µM (active).
`OCc1cc2c(ccc3sc4ccc5sc6ccc7ncccc7c6c5c4c32)s1`: the GI50 in the assay with 786-0 is 3.55 µM (inactive); with A549, 11.4 µM (inactive); in the assay on DU-145, 17.1 µM (inactive); in the assay with HL-60, 10.1 µM (inactive); with HOP-92, 29.6 µM (inactive); with K562, 22.4 µM (inactive). The GI50 in the assay on LOX IMVI is 12.6 µM (inactive); with MCF7 it was 17.8 µM (inactive); in the assay on MDA-MB-231, 4.17 µM (inactive); with MDA-MB-435 it was 24.3 µM (inactive); with MDA-N, 10.3 µM (inactive); with NCI-H226, 30.1 µM (inactive). Also, the GI50 in the assay with OVCAR-3 was 16.9 µM (inactive); with PC-3, 5.93 µM (inactive); in the assay with RPMI-8226 it was 13.6 µM (inactive); in the assay on SW-620 it was 28.2 µM (inactive); with T47D it was 8.22 µM (inactive); in the assay on UACC-62 it was 7.45 µM (inactive). Moreover, the GI50 with UO-31 was 2.11 µM (inactive).
